{"source": "PubChem BioAssay AID652058", "about": "(Broad Institute, 2013)", "tested_on": "HeLa Env/CEM cell fusion, luciferase, 16-24 h", "experiment": "blockers of HIV-1 ZM109 envelope-driven cell-cell fusion – HeLa effector, CEM target cells, luciferase, cherry-pick, dose response (AID 652058)", "note": "Inconclusive results are not listed.", "data": [{"smiles": "O=C(C[C@H]1C[C@H]2c3cc(NC(=O)c4ccc5c(c4)OCO5)ccc3O[C@H]2[C@H](CO)O1)NCc1ccc(Oc2ccccc2)cc1", "values": [{"measurement": "AC50", "value": 13.7, "unit": "µM"}]}]}
